From the OPERA property sets (Mansouri et al. 2018) come the findings set out here.

Conditions in one series: not given
`Cc1cccc2ccoc12`: the boiling point worked out at 190 °C and the melting point amounted to 109 °C.
In the case of `C=CC(OC(C)=O)OC(C)=O`, the boiling point came out at 180 °C, the melting point was -37.6 °C and the ready biodegradability entry was “readily biodegradable”.
`CC(=O)Oc1ccccc1` showed a boiling point of 196 °C, a log10 vapour pressure (mmHg) of -0.4 and a melting point of -30 °C.
`CCCC(=O)OC(C)C` had a boiling point of 130 °C.
`CC(=O)C=Cc1ccco1` yielded a melting point of 39.5 °C.
Take `CCCCOCc1ccco1`: the boiling point turned out to be 190 °C.
Turning to `Clc1ccc(-c2ccc(Cl)c(Cl)c2)cc1Cl`, the log10 Henry constant (atm·m³/mol) was -5.03, the log10 Koa is 9.7 and the log10 vapour pressure (mmHg) is -4.78.
`CC(C)c1ccc(O)cc1` had a boiling point of 230 °C, a log10 vapour pressure (mmHg) of -1.34 and a melting point of 62.3 °C.
Compound `Cc1ccc2ccccc2c1` showed a boiling point of 241 °C, a log10 Henry constant (atm·m³/mol) of -3.29, a log10 Koc (L/kg) of 3.6 and a log10 biodegradation half-life (days) of 1.15. For the same compound, the log10 vapour pressure (mmHg) is -1.26 and the melting point was found to be 34.4 °C.
In turn, `Cc1ccc(C)c2ccccc12` showed a boiling point of 268 °C, a log10 biodegradation half-life (days) of 1.18, a log10 vapour pressure (mmHg) of -1.67 and a melting point of 7.6 °C.
`COP(=S)(OC)Oc1ccc([N+](=O)[O-])cc1Cl` yielded a log10 vapour pressure (mmHg) of -5.44 and a melting point of 52.5 °C.
Take `C1CSCCS1`: the boiling point was 200 °C, the log10 vapour pressure (mmHg) was -0.0969 and the melting point came out at 112 °C.
As to `CP(C)(=O)O`, the melting point worked out at 92 °C.
The compound `CC(O)CN` (configuration not stated) had a boiling point of 160 °C, a log10 vapour pressure (mmHg) of -0.328 and a melting point of 25 °C.
In turn, `O=c1[nH]c(=O)n([C@H]2CC[C@@H](CO)O2)cc1Br` showed a melting point of 180 °C.
`CCOS(=O)OCC` came in with a boiling point of 158 °C.
On to `Cc1cccnc1`, for which the boiling point is 144 °C, the log10 Henry constant (atm·m³/mol) is -5.11, the log10 vapour pressure (mmHg) came out at 0.782 and the melting point was -18.1 °C. The ready biodegradability entry is “not readily biodegradable”.
`CC(C)(O)CCc1ccccc1`: the melting point was 24.5 °C.
The compound `CCC(C(=O)O)c1ccc(-c2ccccc2)cc1` (configuration not stated) yielded a melting point of 124 °C.
In turn, `CCCCCCCCCCCC(N)=O` had a melting point of 110 °C.
Turning to `CCCN=C=S`, the boiling point was 153 °C.
With `CC1(C)[C@H](/C=C(\Cl)C(F)(F)F)[C@@H]1C(=O)O[C@H](C#N)c1cccc(Oc2ccccc2)c1`, the log10 Koc (L/kg) was determined as 5.26 and the log10 vapour pressure (mmHg) is -8.47.
With `O=[N+]([O-])c1ccc(Cl)cc1O`, the melting point worked out at 41 °C.
Consider `FC(F)=C(F)C(F)(F)C(F)(F)C(F)(F)C(F)(F)C(F)(F)F`, for which the boiling point came out at 81 °C.
For `ClCC1C(CCl)C2(Cl)C(Cl)=C(Cl)C1(Cl)C2(Cl)Cl` (configuration not stated), the melting point came out at 105 °C.
Consider `Cc1cc2ccccc2oc1=O`, for which the boiling point turned out to be 292 °C and the melting point is 91 °C.
Turning to `CCCCCCCCC=CCCCCCCCC(=O)OCC(O)C1OCC(O)C1O` (configuration not stated), the ready biodegradability result is “readily biodegradable”.
As to `CCCCCCCCc1ccc(Nc2ccc(CCCCCCCC)cc2)cc1`, the ready biodegradability entry is “not readily biodegradable”.
`Cc1c(C)c([N+](=O)[O-])c(C)c(C)c1[N+](=O)[O-]` came in with a melting point of 212 °C.
Take `BrCCC1CCCCC1`: the boiling point was found to be 212 °C and the melting point is -57 °C.
`COC(=O)C1(O)c2ccccc2-c2ccc(Cl)cc21` (configuration not stated) registered a melting point of 139 °C.
Same read-out and setting: the value for `O=C(O)CCCCCCCBr` was 38.5 °C; that for `COc1ccccc1OCC(O)CO` (configuration not stated) was 78.5 °C.
Turning to `CC(=O)OCC(C)OC(C)=O` (configuration not stated), the boiling point worked out at 190 °C.
Turning to `Cc1ccc(Cl)c(O)c1`, the boiling point turned out to be 213 °C, the melting point came to 50.8 °C and the ready biodegradability result is on record as “not readily biodegradable”.
Turning to `OCC(F)(F)C(F)(F)C(F)(F)F`, the boiling point turned out to be 95 °C and the log10 vapour pressure (mmHg) was found to be 1.52.
As to `CCOS(=O)(=O)OCC`, the boiling point worked out at 208 °C, the log10 vapour pressure (mmHg) was -0.674, the melting point is -24 °C and the ready biodegradability result is given as “readily biodegradable”.
`OCc1ccccc1O`: the melting point was found to be 87 °C and the ready biodegradability entry is given as “not readily biodegradable”.
`C=CC(=C)C`: the boiling point worked out at 34 °C, the log10 Koa is 2.06, the log10 vapour pressure (mmHg) turned out to be 2.74 and the melting point is -146 °C. The ready biodegradability result was “not readily biodegradable”.
Regarding `CCC1(CC)C(=O)NC(=S)NC1=O`, the melting point was found to be 180 °C.
`CC1OCCO1` came in with a boiling point of 81.5 °C.
`CCN(C)CC` returned a boiling point of 66 °C and a melting point of -196 °C.
`Fc1ccccc1-c1ccccc1` had a boiling point of 248 °C and a melting point of 73.5 °C.
Regarding `CC(C)Nc1ccc(Nc2ccccc2)cc1`, the melting point was 74 °C and the ready biodegradability entry is on record as “not readily biodegradable”.
`CC(C)(Oc1ccc(Cl)cc1)C(=O)OCCOC(=O)c1cccnc1` showed a melting point of 100 °C.
Take `COC(=O)c1ccccc1N`: the boiling point was 256 °C, the log10 vapour pressure (mmHg) is -1.57 and the melting point turned out to be 24.5 °C.
`Cc1ccc(Cc2ccccc2)cc1` showed a boiling point of 286 °C and a melting point of -30 °C.
Take `CCCl`: the boiling point worked out at 12.3 °C, the log10 Henry constant (atm·m³/mol) was -1.95, the log10 vapour pressure (mmHg) worked out at 3 and the melting point is -139 °C. For the same compound, the ready biodegradability entry is recorded as “not readily biodegradable”.
As to `CCCCCCNC(=O)C=Cc1ccc(O)c(O)c1`, the melting point came to 142 °C.
`C=Cc1ccncc1`: the log10 Koc (L/kg) was determined as 1.18, the log10 vapour pressure (mmHg) stood at 0.23 and the ready biodegradability result is “not readily biodegradable”.
As to `CCCCCCCCOC(=O)CCCC`, the boiling point came to 262 °C and the melting point was -42.3 °C.
Take `CCN(C)C(=O)COC(=O)c1ccccc1`: the melting point was 20 °C.
In turn, `Ic1cc(I)c(I)c(I)c1` showed a melting point of 148 °C.
Same read-out and setting: the value for `O=Cc1cc([N+](=O)[O-])ccc1O` was 129 °C.
As to `CC(C)(C)OOC(=O)c1ccccc1`, the melting point is 8 °C and the ready biodegradability entry is reported as “not readily biodegradable”.
On to `CCOC(=O)Cc1[nH]nc2ccc(Cl)cc12`, for which the melting point came to 77 °C.
Compound `N#CCN(CC#N)CC#N` yielded a log10 vapour pressure (mmHg) of -6.5 and a melting point of 126 °C.
Turning to `Brc1cccc2c1Oc1cccc(Br)c1O2`, the log10 vapour pressure (mmHg) was -5.95 and the melting point was 207 °C.
The compound `CCC(=O)c1ccc(C)cc1` came in with a boiling point of 236 °C, a log10 vapour pressure (mmHg) of -1.03 and a melting point of 7.2 °C.
Take `CCCCCCCCCCCCSP(SCCCCCCCCCCCC)SCCCCCCCCCCCC`: the ready biodegradability entry was “not readily biodegradable”.
As for `CCC(C)(C)C(=O)O[C@H]1C[C@@H](C)C=C2C=C[C@H](C)[C@H](CC[C@@H]3C[C@@H](O)CC(=O)O3)[C@H]21`, the melting point was 136 °C.
In the case of `Cl[SiH2]c1ccccc1`, the boiling point was 162 °C.
As for `Cc1cc(N)ccc1O`, the melting point was 176 °C.
With `C=C[C@H]1C[N@@]2CC[C@H]1C[C@H]2C12Nc3ccccc3C1(O)CCO2` (some centres not stated), the melting point is 186 °C.
`O=C(O)CCCCCCCCCF` yielded a melting point of 49 °C.
Same read-out and setting: the figure for `C=C1CC(=O)OC1=O` is 69 °C; for `CC(=O)Oc1ccc([N+](=O)[O-])cc1` it is 78 °C; for `CC1(C)CC[C@]2(C(=O)O)CC[C@]3(C)C(=CC[C@@H]4[C@@]5(C)CC[C@H](O)[C@@](C)(C=O)[C@@H]5CC[C@]43C)[C@@H]2C1` it is 275 °C.
The compound `CCC(C)(CC)C(C)C` had a boiling point of 145 °C.
As to `Cc1cc(N)n(-c2ccccc2)n1`, the boiling point worked out at 333 °C and the melting point was found to be 116 °C.
For `C=COC(C)(C)C` the same measures were 75 °C and -112 °C.
The compound `O=C(O)c1ccccc1` had a boiling point of 249 °C, a log10 Koc (L/kg) of 1.5, a log10 vapour pressure (mmHg) of -3.15 and a melting point of 122 °C. For the same compound, the ready biodegradability result was “readily biodegradable”.

Staying with this series, now noted: fish.
Take `Clc1ccc(-c2ccc(Cl)c(Cl)c2)cc1Cl`: the log10 BCF came out at 4.62 and the log10 biotransformation half-life (days) turned out to be 1.35.
For `Cc1ccc2ccccc2c1` the same measures were 1.87 and 0.88.
For `COP(=S)(OC)Oc1ccc([N+](=O)[O-])cc1Cl` the same measures were 1.89 and 0.01.
Consider `Cc1ccc(Cl)c(O)c1`, for which the log10 BCF is 0.67.
The compound `C=CC(=C)C` gave a log10 BCF of 1.3 and a log10 biotransformation half-life (days) of -0.61.
`C=Cc1ccncc1` came in with a log10 BCF of 1.86.
As to `Clc1ccc(Cl)c(-c2c(Cl)cc(Cl)c(Cl)c2Cl)c1`, the log10 biotransformation half-life (days) came out at 2.23.

Broadly, the boiling point is the temperature at which the vapour pressure of the liquid equals the pressure above it. Broadly, the melting point is the temperature of the solid-liquid transition.
